Patent US20230099264A1, “Biomarker for Predicting Prognosis of Radiotherapy for Lung Cancer” (Korea Institute of Radiological & Medical Sciences, priority 2020, published 2023)

How the values were obtained:
Type in all cases: cell-based, Human
RIP1 = experiment: Western blot of RIP1 expression in IR-treated A549 cells; settings: 24 hours
Description: In addition, lung cancer cell line A549 (control) and IR-treated lung cancer cell line A549 (IR) were seeded at 1×10^6 in a 60π dish and treated with EGFR inhibitor (EGFR inh), Src inhibitor (Src inh), and STAT3 inhibitor (STAT3 inh). The cells were treated by IR (IR-EGFR inh, IR-Src inh, and IR-STAT3 inh). The cells were harvested 24 hours later, and protein was extracted.
(§1) In addition, lung cancer cell line A549 (control) and IR-treated lung cancer cell line A549 (IR) were seeded at 1×10^6 in a 60π dish and treated with necrostatin. The cells were harvested 24 hours later, and protein was extracted. Then, Western blot was performed to confirm the expressions of RIP1, vimentin, MMP2, MMP9, p-EGFR, EGFR, β-action, p-Src, Src, p-STAT3, and STAT3, and the results are shown in FIGS. 4D and 4E.
In addition, lung cancer cell line A549 (control) and IR-treated lung cancer cell line A549 (IR) were seeded with 1×10^6 in a 60π dish and were treated with an NF-κB inhibitor. The cells were harvested 24 hours later, and protein was extracted. Then, Western blot was performed to confirm the expressions of RIP1, vimentin, MMP2, MMP9, p-IκBα, p-P65, p50, and p105.

[1] = test system: IR-treated lung cancer cell line A549; experiment: Transwell invasion and migration assay of IR-treated lung cancer cells; settings: IR (10 Gy)-treated A549, transwell, 24 hours
Description: Lung cancer cells (A549) (5×10^5) were seeded in 60 mm dishes and cultured overnight, followed by IR exposure (10 Gy) using a 137 Cs radiation source (Atomic Energy of Canada, Ltd., Mississauga, ON, Canada) to obtain IR-treated lung cancer cell lines (A549 IR (10 Gy)).
In order to analyze the cell invasion of lung cancer cells by IR treatment, Matrigel-coated transwells (Corning N. Y., USA) were used, and in order to analyze cell migration, collagen-coated transwells (Corning, N.Y., USA) were used.
(§2) Lung cancer cell line A549 (control) and IR-treated lung cancer cell line A549 (IR) were placed in an upper chamber by 5×10^4 in a Matrigel-coated transwell, and treated with EGFR, Scr, and STAT3 inhibitors, respectively. Then, 10% FBS medium was put into the lower chamber, and cells passing through the transwell were stained after 24 hours to confirm cell invasion, and the results are shown in FIGS. 3C and 3D.
as §2, with “transwell” for “transwell,”, “necrostatin.” for “EGFR, Scr, and STAT3 inhibitors, respectively.”, “4A” for “3C”, “4B. […]” for “3D.”

[2] = test system: IR-treated lung cancer cell line A549; experiment: Cell viability of IR-treated lung cancer cells under inhibitor treatment
[3] = test system: vimentin, MMP2, MMP9, p-EGFR, p-Src, p-STAT3; experiment: Western blot of EMT-related and signaling proteins in IR-treated A549 cells; settings: 24 hours
Description: In addition, lung cancer cell line A549 (control) and IR-treated lung cancer cell line A549 (IR) were seeded at 1×10^6 in a 60π dish and treated with EGFR inhibitor (EGFR inh), Src inhibitor (Src inh), and STAT3 inhibitor (STAT3 inh). The cells were treated by IR (IR-EGFR inh, IR-Src inh, and IR-STAT3 inh). The cells were harvested 24 hours later, and protein was extracted. Then, Western blot was performed to confirm the expressions of RIP1, vimentin, MMP2, MMP9, p-Src, Src, p-STAT3, STAT3, and β-action, and the results are shown in FIG. 3B (EGFR inhibitor), FIG. 3C (Src inhibitor), and FIG. 3D (STAT3 inhibitor).
as §1
In addition, the same experiment as the above experiment was performed by treating a commercially available siRNA capable of inhibiting the expression of RIP1, and the results are shown in FIGS. 5A-5D.

[4] = test system: vimentin, MMP-2/9, E-cadherin; experiment: Immunoblot analysis of EMT markers with or without IL-Ra under IR irradiation
Description: Immunoblot analysis of samples treated with or without IL-Ra (an antagonist of IL-1β) under IR irradiation conditions was performed, and the results are shown in FIG. 8A.

Compound | RIP1 expression (RIP1) | cell invasion and cell migration [1] | cell viability compared with lung cancer cell line not treated with radiation (control) [2] | activities/expression of vimentin, MMP2, MMP9, p-EGFR, p-Src, p-STAT3 (EMT-related factors) [3] | IR-induced increase of vimentin and MMP-2/9 expressions and decrease of E-cadherin [4]
CN1C(=O)C(Cc2c[nH]c3ccccc23)NC1=S (stereo not drawn) [necrostatin, Necrostatin-1] | decreased expression | reduced | almost similar | decreased activities | 
IL-Ra: an antagonist of IL-1β |  | almost completely blocked |  |  | inhibiting this action
